How the values were obtained:
Male SD rats [1] = test: Inhibitory action for reperfusion arrhythmia (Evaluation Example 2; coronary artery ligation 5 minutes, reperfusion 10 minutes); type: in vivo, rat; conditions: 1.0 mg/kg intravenously 5 minutes before obstruction of coronary artery
Method: (§1) Male SD rats of 8-12 week age were anesthetized with pentobarbital and subjected to thoracotomy under artificial respiration. The left anterior descending coronary artery of each rat was ligated for 5 minutes and then subjected to reperfusion for 10 minutes. An electrocardiograph in standard bipolar limb lead II was recorded for each rat to examine the occurrence of ventricular arrhythmia. A test compound was intravenously administered 5 minutes before the obstruction of coronary artery. For comparison, the same evaluation was conducted also on the 5-(4-methoxy-3-sulfophenyl)-3H-1,2-dithiole-3-thione sodium salt described in Eur. J. Med. Chem. 15, 405 (1980). [drawing 93]

Male SD rats [2] = test: Inhibitory action for disappearance of enzyme in myocardial cells after ischemia and reperfusion (Evaluation Example 3); type: in vivo, rat; conditions: 1.0 mg/kg intravenously; ligation 20 minutes, reperfusion 2 hours; left ventricle; average value ± standard error
Method: Male SD rats of 7-12 week age were anesthetized with pentobarbital and subjected to thoracotomy under artificial respiration. The left anterior descending coronary artery of each rat was ligated for 20 minutes and then subjected to reperfusion for 2 hours. Then, the heart of each rat was enucleated and the left ventricle was separated. The left ventricle was homogenized to measure the activity of creatine phosphokinase (CPK) remaining in the ventricle. A test compound was intravenously administered 5 minutes before the obstruction of coronary artery. In Table 15 are shown the differences in CPK activity between non-ischemia territory and ischemia and reperfusion territory of left ventricle, of test compound and control.
In Table 15, CPK activity indicates (average value ± standard error), and n indicates the number of tested rats.

peroxylipid [3] = test: Inhibitory action for formation of peroxylipid (Evaluation Example 1; MDA, thiobarbituric acid method); type: biochemical; conditions: rat brain homogenate, 37°C for 60 minutes; test compound 10⁻⁴ M; n=2
Method: (§2) Male SD rats of 7-10 week age were anesthetized with pentobarbital and then subjected to dehematization. Thereafter, their brains were enucleated. The brain tissues were homogenized with a phosphate buffer solution with ice-cooling. Each of the 5% homogenates was incubated at 37°C for 60 minutes to form malondialdehyde (MDA). The amount of MDA was determined by measuring the absorbance at 535 nm according to the thiobarbituric acid method. Using this MDA amount (a) and a control value (b) (a MDA amount when no test compound was added), the inhibition (%) for formation of peroxylipid, of test compound was calculated from the following formula. Inhibition (%) for formation of peroxylipid = [(b-a)/b]x100 [formula] Each test compound was added to the homogenate before the incubation.
(§3) Incidentally, the concentration of each test compound was 10⁻⁴ M, and the number of rats used for each test compound was n=2.

[4] = Solubility in water (Test Example 1); type: physicochemical; conditions: 5% aqueous glucose solution, saline or isotonic
Method: (§4) Solubility in 5% aqueous glucose solution was measured.

peroxylipid [5] = test: Inhibitory action for formation of peroxylipid (Evaluation Example 4; MDA, thiobarbituric acid method); type: biochemical; conditions: rat brain homogenate, 37°C for 60 minutes; test compound 10⁻⁴ M; n=2
Method: as §2, §3

Male SD rats [6] = test: Inhibitory action for disappearance of enzyme in myocardial cells after ischemia and reperfusion (Evaluation Example 6); type: in vivo, rat; conditions: for Mortality (%) / CPK activity (U/mg protein) (Non-ischemia territory)-(ischemia and reperfusion territory): 1.0 mg/kg intravenously, ligation 20 minutes, reperfusion 2 hours; for CPK activity (U/mg protein) (Non-ischemia territory)-(ischemia and reperfusion territory): left ventricle, average value ± standard error
Method: Male SD rats of 7-12 week age were anesthetized with pentobarbital and subjected to thoracotomy under artificial respiration. The left anterior descending coronary artery of each rat was ligated for 20 minutes and then subjected to reperfusion for 2 hours. Then, the heart of each rat was enucleated and the left ventricle was separated. The left ventricle was homogenized to measure the activity of creatine phosphokinase (CPK) remaining in the ventricle. Each test compound was intravenously administered 5 minutes before the obstruction of coronary artery. For comparison, the same evaluation was conducted also on the 4-(4-methoxy-3-sulfophenyl)-5-phenyl-3H-1,2-dithiole-3-thione sodium salt described in Bull. […] Chim. […] In Table 18 are shown the differences in CPK activity between non-ischemia territory and ischemia and reperfusion territory of left ventricle, of test compounds and control.
In Table 18, CPK activity indicates (average value ± standard error), and n indicates the number of tested rats.

Male SD rats [7] = test: Inhibitory action of reperfusion arrhythmia (Evaluation Example 5; coronary artery ligation 5 minutes, reperfusion 10 minutes); type: in vivo, rat; conditions: 1.0 mg/kg intravenously 5 minutes before obstruction of coronary artery
Method: as §1, with “arrhythmia. Each” for “arrhythmia. A”, “[drawing 95]” for “[drawing 93]”

[8] = Solubility in water (Test Example 2); type: physicochemical; conditions: 5% aqueous glucose solution, saline or isotonic
Method: as §4

solubility [4]	SMILES	Inhibition (%) (peroxylipid [3])	Inhibition (%) (peroxylipid [5])	Mortality (%) (Male SD rats [6])	CPK activity (U/mg protein) (Non-ischemia territory)-(ischemia and reperfusion territory) (Male SD rats [6])	Mortality (%) (Male SD rats [7])	VF incidence (VF rats)/(tested rats) (%) (Male SD rats [7])	other results
≥ 10000 µg/mL	COc1cc2c(cc1S(=O)(=O)[O-])OCc1c-2ssc1=S.[Na+] [Production Example 12, 8-methoxy-7-sulfo-3H,4H-benzopyrano-[4,3-c]-1,2-dithiole-3-thione sodium salt]	100%	–	–	–	–	–	–
≥ 10000 µg/mL	COc1cc2c(cc1S(=O)(=O)[O-])CCc1c-2ssc1=S.[Na+] [Production Example 3, 4,5-dihydro-8-methoxy-7-sulfo-3H-naphtho-[1,2-c]-1,2-dithiole-3-thione sodium salt]	100%	–	–	–	–	–	–
≥ 10000 µg/mL	CCOc1cc2c(cc1S(=O)(=O)[O-])-c1ssc(=S)c1CC2.[Na+] [Production Example 5, 4,5-dihydro-7-ethoxy-8-sulfo-3H-naphtho-[1,2-c]-1,2-dithiol-3-thione sodium salt]	100%	–	–	–	–	–	–
–	COc1ccc(-c2c(-c3ccc(C)cc3)ssc2=S)cc1S(=O)(=O)[O-].[Na+] [Production Example 34, 4-(4-methoxy-3-sulfophenyl)-5-(p-tolyl)-3H-1,2-dithiole-3-thione sodium salt]	–	100%	40.0%	0.81 ± 0.43 (n=10) U/mg protein	2/7 (28.6) %	3/7 (42.9) %	solubility [8]: ≥ 10000 µg/mL
≥ 10000 µg/mL	O=S(=O)([O-])c1ccc2c(c1)-c1ssc(=S)c1CO2.[Na+] [Production Example 13, 8-sulfo-3H,4H-benzopyrano[4,3-c]-1,2-dithiole-3-thione sodium salt]	100%	–	–	–	–	–	–
–	O=S(=O)([O-])c1ccc(Cc2c(-c3ccccc3)ssc2=S)cc1.[Na+] [Production Example 39, 5-phenyl-4-(4-sulfobenzyl)-3H-1,2-dithiole-3-thione sodium salt]	–	100%	12.5%	0.84 ± 0.18 (n=8) U/mg protein	0/4 (0.0) %	1/4 (25.0) %	–
–	COc1ccc(-c2c(-c3ccccc3)ssc2=S)cc1S(=O)(=O)[O-].[Na+] [Compound in literature, 4-(4-methoxy-3-sulfophenyl)-5-phenyl-3H-1,2-dithiole-3-thione sodium salt, reference compound]	–	–	–	–	–	–	effect on disappearance of creatine phosphokinase from myocardial cells and on rat mortality (Male SD rats [6]; result in words, versus control): no significant effect
–	CCCCCCc1ssc(=S)c1Cc1ccc(OC)c(S(=O)(=O)[O-])c1.[Na+] [Production Example 26, 5-hexyl-4-(4-methoxy-3-sulfobenzyl)-3H-1,2-dithiole-3-thione sodium salt]	–	100%	33.3%	0.70 ± 0.23 (n=9) U/mg protein	2/6 (33.3) %	3/6 (50.0) %	solubility [8]: ≥ 10000 µg/mL

SMILES	solubility [4]	Inhibition (%) (peroxylipid [3])	Inhibition (%) (peroxylipid [5])	Mortality (%) (Male SD rats [6])	CPK activity (U/mg protein) (Non-ischemia territory)-(ischemia and reperfusion territory) (Male SD rats [6])	Mortality (%) (Male SD rats [7])	VF incidence (VF rats)/(tested rats) (%) (Male SD rats [7])	other results
COc1cc2c(cc1S(=O)(=O)[O-])-c1ssc(=S)c1CC2.[Na+] [Production Example 4, 4,5-dihydro-7-methoxy-8-sulfo-3H-naphtho[1,2-c]-1,2-dithiole-3-thione sodium salt]	≥ 10000 µg/mL	100%	–	–	–	–	–	Mortality (%) (Male SD rats [1]): 2/5 (40.0) %; VF incidence (VF rats)/(tested rats) (%) (Male SD rats [1]): 2/5 (40.0) %; CPK activity (U/mg protein) (Non-ischemia territory)-(ischemia and reperfusion territory) (Male SD rats [2]): 1.36 ± 0.34 (n=7) U/mg protein

Reference: patent EP0641792A1, “1,2-Dithiole derivatives and therapeutic agents containing them” (MITSUI TOATSU CHEMICALS, Inc., priority 1993, dated 1995)
